Reference: PMC11211886 (Frontiers in Pharmacology, 2024)
pIC50: −log10 of the molar value. “And” between values parts separate entries of the source, which are not always exact repeats. Identical values can stand only once.

Assays:
[1] = male, ICR, mouse, in vivo, iv
CYP2C9 mRNA = experiment: CYP induction in human hepatocytes, CYP2C9 mRNA (RT-PCR)
Description: (§1) […] […] […] Enzyme activity for each CYP isoform was reported as a fold change over vehicle control and the percent of positive control (detailed calculation in Supplementary 1.1). Hepatocytes were harvested with a lysis buffer from RNeasy 96 Kit (Qiagen Inc., Germantown, MD, USA) to isolate RNA, which was analyzed by real-time quantitative polymerase chain reaction (RT-PCR). […] Emax (the maximal observed induction) and EC50 (the concentration that supports half-maximal induction) were estimated by non-linear regression of fold increase in CYP mRNA expression versus concentration plots.
(§2) % of positive control = [(fold change in treated sample)-1] / [(fold change in positive control)-1] × 100
Based on the gene expression, a minimum of 4-fold increase of positive control compared to vehicle control, a minimum of 2-fold increase of the test article compared vehicle control and increased in a concentration-dependent manner was considered as the cutoff for a positive signal in in vitro induction assay.

CYP2C19 = experiment: CYP induction in human hepatocytes, CYP2C19 enzyme activity; assay type: in vitro ADME
Description: as §1
The fold of vehicle control and the percent of positive control were calculated with the formulas below:
Fold of vehicle control = CYPs activity of test compound (or positive control) treated sample / CYPs activity of vehicle control treated sample
as §2
Based on the enzyme activity, a minimum of 2-fold increase compared to vehicle control for the positive control and ≥40% of the positive control for the test article was considered as the cutoff for a positive signal in in vitro induction assay.

[2] = Metabolic stability in dog liver microsomes; assay type: in vitro ADME; conditions: for CLint scaled at 1 µM / half-life at 1 µM: pH 7.4; for CLint scaled at 1 µM: read-out: Predicted CL int, iv vivo; for half-life at 1 µM: read-out: in vitro t1/2
Description: (§3) FMO was deactivated by heating liver microsomes at 45°C for 5 min. […] The natural logarithm of the percentage of the drug remaining was plotted against the incubation time, and the slope of the linear regression (-k) was converted to in vitro half-lives (t1/2) using the following equation: […] (1) metabolic clearance is the major mechanism of clearance; (2) liver is the major organ of clearance; and (3) oxidation is the major metabolic pathway. CLint,in vitro=k / Cmicrosomes , Scaled CLint,in vivo=CLint,in vitro×microsomes yield×liver weight, where Cmicrosomes means the experimental protein concentration (0.5 mg/mL) in the incubation system. […] Then, the scaled in vivo intrinsic clearance was used to predict the systemic clearance (equal to the hepatic clearance) using the well-stirred venous equilibration model ([Houston, 1994]).

CYP1A2 = target: T1, CYP1A2 (Homo sapiens, UniProt P05177); experiment: Reversible CYP inhibition in HLM, CYP1A2 (phenacetin); assay type: in vitro ADME; conditions: for enzyme activity remaining: CYP1A2, HLM
T1 construct: tissue Life Technologies (Durham, NC, USA); host or cells: human liver microsomes
T1 sequence (P05177 1-516): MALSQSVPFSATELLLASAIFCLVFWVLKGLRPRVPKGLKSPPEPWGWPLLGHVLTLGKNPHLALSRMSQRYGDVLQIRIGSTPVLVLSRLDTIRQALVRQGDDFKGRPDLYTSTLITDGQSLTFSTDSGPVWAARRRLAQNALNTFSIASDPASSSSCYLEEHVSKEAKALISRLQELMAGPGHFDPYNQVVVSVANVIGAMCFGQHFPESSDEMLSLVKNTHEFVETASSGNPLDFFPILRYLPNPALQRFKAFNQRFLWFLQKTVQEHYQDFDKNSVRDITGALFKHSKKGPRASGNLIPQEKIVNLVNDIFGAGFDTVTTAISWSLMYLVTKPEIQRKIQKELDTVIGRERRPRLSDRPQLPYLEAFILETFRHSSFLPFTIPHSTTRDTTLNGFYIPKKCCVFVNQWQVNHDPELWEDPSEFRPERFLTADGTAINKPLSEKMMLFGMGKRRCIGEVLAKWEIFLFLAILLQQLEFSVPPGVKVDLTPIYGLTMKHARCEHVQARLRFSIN
Description: The markers used to determine the activities of CYP isoforms were phenacetin O-deethylation for CYP1A2 (probe substrate: 50 µM phenacetin), bupropion hydroxylation for CYP2B6 (probe substrate: 70 µM bupropion), paclitaxel 6α-hydroxylation for CYP2C8 (probe substrate: 10 µM paclitaxel), diclofenac 4′-hydroxylation for CYP2C9 (probe substrate: 5 µM diclofenac), S-(+)-mephenytoin 4′-hydroxylation for CYP2C19 (probe substrate: 20 µM S-(+)-mephenytoin), dextromethorphan O-demethylation for CYP2D6 (probe substrate: 6 µM dextromethorphan), chlorzoxazone 6′-hydroxylation for CYP2E1 (probe substrate: 70 µM chlorzoxazone), and testosterone 6β-hydroxylation and midazolam 1′-hydroxylation for CYP3A4/5 (probe substrate: 45 µM testosterone and 5 µM midazolam). […] Alpha-naphthoflavone (0.04 µM), 2-phenyl-2-(1-piperidinyl)propane (5 µM), quercetin (1 µM), sulfaphenazole (0.5 µM), ticlopidine (4 µM), quinidine (0.2 µM), diethyldithiocarbamate (20 µM), and ketoconazole (0.05 µM) were used as positive inhibitors of CYP1A2, 2B6, 2C8, 2C9, 2C19, 2D6, 2E1, and 3A4, respectively. The vehicle control was prepared in the same composition as inhibitor solutions but free of inhibitors. The concentrations of probe substrates were close to Km values that were determined in-house and within the range recommended by the FDA ([Huang et al., 2007]). Reaction mixtures were incubated at 37°C for 5, 20, or 30 min, depending on the probe substrates of CYP isoforms. The reactions were terminated by adding cold acetonitrile containing IS, and the terminated incubation mixtures were centrifuged at 3,000 g for 10 min before LC-MS/MS analysis.

[3] = Metabolic stability in human liver microsomes; assay type: in vitro ADME
Description: as §3

[4] = FMO-deactivated liver microsomes, female dog liver microsomes, FMO deactivation
[5] = FMO-deactivated liver microsomes, male dog liver microsomes, FMO deactivation
[6] = female dog liver microsomes, normal
[7] = male dog liver microsomes, normal

Structure (SMILES): C[C@H](Nc1ncnc(N)c1C#N)c1cc2ncc(Cl)n2nc1-c1ccccc1 [Amdizalisib]
- CL as % of the hepatic blood flow [1]: 16.3%
- induction on CYP2C9 mRNA expression (CYP2C9 mRNA; 20 uM): >2-fold induction on CYP1A2, 2B6, 3A4, 2C9 mRNA expression at 20 uM
- Gene expression Percent of PC (%) (CYP2C9 mRNA; CYP2C9, donor eight, 0.3 µM): 5.23%
- Gene expression Percent of PC (%) (CYP2C9 mRNA; CYP2C9, donor eight, 3 µM): 20.0%
- Gene expression Percent of PC (%) (CYP2C9 mRNA; CYP2C9, donor eight, 20 µM): 54.5%
- Gene expression Percent of PC (%) (CYP2C9 mRNA; CYP2C9, donor four, 0.3 µM): 16.1%
- Gene expression Percent of PC (%) (CYP2C9 mRNA; CYP2C9, donor four, 3 µM): 28.8%
- Gene expression Percent of PC (%) (CYP2C9 mRNA; CYP2C9, donor four, 20 µM): 81.6%
- Gene expression Percent of PC (%) (CYP2C9 mRNA; CYP2C9, donor one, 0.3 µM): 12.7%
- Gene expression Percent of PC (%) (CYP2C9 mRNA; CYP2C9, donor one, 3 µM): 18.0%
- Gene expression Percent of PC (%) (CYP2C9 mRNA; CYP2C9, donor one, 20 µM): 59.0%
- Enzyme activity Percent of PC (%) (CYP2C19; CYP2C19, donor eight, 0.3 µM): 2.58%
- Enzyme activity Percent of PC (%) (CYP2C19; CYP2C19, donor eight, 3 µM): -3.72%
- Enzyme activity Percent of PC (%) (CYP2C19; CYP2C19, donor eight, 20 µM): -16.6%
- Enzyme activity Percent of PC (%) (CYP2C19; CYP2C19, donor four, 0.3 µM): -2.17%
- Enzyme activity Percent of PC (%) (CYP2C19; CYP2C19, donor four, 3 µM): -13.5%
- Enzyme activity Percent of PC (%) (CYP2C19; CYP2C19, donor four, 20 µM): -28.3%
- Enzyme activity Percent of PC (%) (CYP2C19; CYP2C19, donor one, 0.3 µM): 6.39%
- Enzyme activity Percent of PC (%) (CYP2C19; CYP2C19, donor one, 3 µM): 1.83%
- Enzyme activity Percent of PC (%) (CYP2C19; CYP2C19, donor one, 20 µM): -19.2%
- induction of CYP2C19 enzyme activity (CYP2C19; up to 20 µM, all three donors): no induction potential
- CLint scaled at 1 µM [2, 4]: 3.02 L/h/kg
- half-life at 1 µM [2, 4]: 0.66 h
- CLint scaled at 1 µM [2, 5]: 1.19 L/h/kg
- half-life at 1 µM [2, 5]: 1.67 h
- Predicted CL sys ([2]; female dog liver microsomes, FMO deactivation): 1.15 L/h/kg
- Predicted CL sys [2, 6]: 1.13 L/h/kg
- Predicted CL sys ([2]; male dog liver microsomes, FMO deactivation): 0.726 L/h/kg
- Predicted CL sys [2, 7]: 0.744 L/h/kg
- CLint scaled at 1 µM [2, 6]: 2.89 L/h/kg
- half-life at 1 µM [2, 6]: 0.692 h
- CLint scaled at 1 µM [2, 7]: 1.24 L/h/kg
- half-life at 1 µM [2, 7]: 1.6 h
- pIC50 (CYP1A2): < 4.30
- enzyme activity remaining (CYP1A2; 0.08 μM): 104% and 96.1%
- enzyme activity remaining (CYP1A2; 0.4 μM): 102% and 99.1%
- enzyme activity remaining (CYP1A2; 2 μM): 94.1% and 95.9%
- enzyme activity remaining (CYP1A2; 10 μM): 97.6% and 90.1%
- enzyme activity remaining (CYP1A2; 50 μM): 99.1% and 99.6%
- Predicted CL sys ([3]; female human liver microsomes, FMO deactivation): 0.304 L/h/kg
- CLint scaled at 1 µM ([3]; female, human, microsomes, pH 7.4, Predicted CL int, iv vivo): 0.347 L/h/kg
- half-life at 1 µM ([3]; female, human, microsomes, pH 7.4, in vitro t1/2): 2.32 h
- parent drug remaining ([3]; male, human, microsomes, 2 h, 1 µM, pH 7.4): > 80%
